In ChEMBL document CHEMBL2074382, “Improvement of L-dopa absorption by dipeptidyl derivation, utilizing peptide transporter PepT1” (J Pharm Sci, 1998) one finds Activity data, which are given here for four compounds.

The target in assay [1] is T1, Solute carrier family 15 member 1 (Homo sapiens) (UniProt P46059).
T1 sequence (whole entry): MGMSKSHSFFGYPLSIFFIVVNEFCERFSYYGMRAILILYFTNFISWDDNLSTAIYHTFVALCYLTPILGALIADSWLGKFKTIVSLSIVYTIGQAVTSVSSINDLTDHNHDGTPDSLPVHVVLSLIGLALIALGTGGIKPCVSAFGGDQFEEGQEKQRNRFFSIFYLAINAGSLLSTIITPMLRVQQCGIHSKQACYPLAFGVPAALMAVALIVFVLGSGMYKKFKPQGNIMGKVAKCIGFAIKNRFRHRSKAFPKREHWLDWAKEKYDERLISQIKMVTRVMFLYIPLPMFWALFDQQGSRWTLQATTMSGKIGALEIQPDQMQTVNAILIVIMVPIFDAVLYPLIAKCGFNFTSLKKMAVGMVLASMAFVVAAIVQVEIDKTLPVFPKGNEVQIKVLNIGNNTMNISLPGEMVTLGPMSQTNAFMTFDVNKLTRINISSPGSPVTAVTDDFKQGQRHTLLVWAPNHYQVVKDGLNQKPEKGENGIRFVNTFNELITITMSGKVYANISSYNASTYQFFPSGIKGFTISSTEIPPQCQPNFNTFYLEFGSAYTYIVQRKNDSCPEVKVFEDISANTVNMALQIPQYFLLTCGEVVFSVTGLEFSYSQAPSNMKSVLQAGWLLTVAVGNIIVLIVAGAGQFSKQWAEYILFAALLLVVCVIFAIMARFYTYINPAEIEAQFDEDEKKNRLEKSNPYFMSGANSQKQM
The experiment in a line: TP_TRANSPORTER: inhibition of Gly-Sar uptake (Gly-Sar: 20 uM, L-dopa-L-Phe: 1000 uM) in Caco-2 cells. Format: functional, cell-based.

The target in assay [2] is T1, Solute carrier family 15 member 1 (Homo sapiens). The experiment in a line: TP_TRANSPORTER: uptake in Xenopus laevis oocytes. Format: functional, cell-based. Conditions: Oocyte.

Non-standard residues stand in square brackets, D forms with d. Residues, ends and D or L forms follow the SMILES beside them. Dopa = N[C@@H](Cc1ccc(O)c(O)c1)C(=O)O

For `N[C@@H](Cc1ccc(O)c(O)c1)C(=O)N[C@@H](Cc1ccccc1)C(=O)O` (H-[Dopa]-Phe-OH), the figures for the Activity result in assay [1] and in assay [2] were “inhibitor [20% (at a rough estimate) of control]” and “substrate [+]”, respectively.
Take `N[C@@H](Cc1ccccc1)C(=O)N1CCC[C@@H]1C(=O)O`: the Activity result in assay [2] was “substrate [+]”.
Same read-out and setting: in the case of `NC(=O)[C@H](Cc1ccccc1)NC(=O)[C@@H](N)Cc1ccccc1` (H-Phe-Phe-NH2) it was “substrate [+]”; in that of `N[C@@H](Cc1ccccc1)C(=O)N1CCC[C@H]1C(=O)O`, “substrate [+]”.
